Results as given in PubChem BioAssay (NCI).
Several values for one entry are separate records, joined by “and”; a condition that tells them apart may be missing. Equal entries are not always repeated.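 Interpolation was linear, between the two tested concentrations surrounding the appropriate level; five concentrations were tested over 48 hours in 96-well plates. At the GI50, growth is halved. TGI: concentration producing complete growth inhibition.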

Assays:
Assay in all cases: inhibition of tumour cell growth, NCI panel, 48 h
A549 NSCLC = tested on: A549 NSCLC
COLO 205 colon = tested on: COLO 205 colon
HOP-62 NSCLC = tested on: HOP-62 NSCLC
HOP-92 NSCLC = tested on: HOP-92 NSCLC
MALME-3M melanoma = tested on: MALME-3M melanoma
MDA-MB-231 breast = tested on: MDA-MB-231 breast
OVCAR-5 ovarian = tested on: OVCAR-5 ovarian
SK-MEL-28 melanoma = tested on: SK-MEL-28 melanoma
SN12C renal = tested on: SN12C renal
TK-10 renal = tested on: TK-10 renal

Structure (SMILES) | GI50 (A549 NSCLC) [µM] | TGI (A549 NSCLC) | GI50 (COLO 205 colon) [µM] | TGI (COLO 205 colon) | GI50 (HOP-62 NSCLC) [µM] | TGI (HOP-62 NSCLC) [µM] | GI50 (HOP-92 NSCLC) [µM] | TGI (HOP-92 NSCLC) | GI50 (MALME-3M melanoma) [µM] | TGI (MALME-3M melanoma) | GI50 (MDA-MB-231 breast) [µM] | TGI (MDA-MB-231 breast) | GI50 (OVCAR-5 ovarian) [µM] | TGI (OVCAR-5 ovarian) | GI50 (SK-MEL-28 melanoma) [µM] | TGI (SK-MEL-28 melanoma) | GI50 (SN12C renal) [µM] | TGI (SN12C renal) [µM] | GI50 (TK-10 renal) [µM] | TGI (TK-10 renal)
N#C/C(=C/C=C(\Cl)c1ccc(Cl)cc1)C(N)=O | 7.54 | 15.4 µM | 5.24 | > 55.8 µM | 2.36 | 4.33 | 2.47 | 9.72 µM | 1.48 | 3.55 µM | 1.97 | 4.82 µM | 4.51 | 17.7 µM | 3.28 | 9.88 µM | 4.38 | 18.7 | 1.61 | 3.31 µM
Nc1ccc(C#Cc2cncnc2Nc2ccc(OCc3cccc(F)c3)c(Cl)c2)cc1 | 8.58 | > 25 µM | > 25 | > 25 µM | > 17.3 | > 25 | 10.6 | > 25 µM | > 25 | > 25 µM | 8.08 | > 25 µM | > 25 | > 25 µM | > 19 | > 25 µM | > 15.6 | > 25 | 3.58 | > 25 µM
CCCCn1c2c(c3ccccc3c1=O)C(=O)c1ccccc1-2 | – | > 100 µM | – | > 100 µM | – | > 100 | – | > 100 µM | – | > 100 µM | – | > 100 µM | – | > 100 µM | – | > 100 µM | – | > 100 | – | > 100 µM
COc1ccc2nc(NCCCNCCO)c3sc4ccc(F)cc4c(=O)c3c2c1 | 1.6 | 3.64 µM | 1.8 | 3.77 µM | 1.62 | 3.26 | 1.1 | 2.45 µM | 1.69 | 3.23 µM | 1.43 | 2.84 µM | 1.5 | 2.87 µM | 1.78 | 3.21 µM | 1.56 | 3.03 | 1.72 | 3.3 µM
O=C1C(Cl)=C(Nc2ccc3cn[nH]c3c2)C(=O)c2ccccc21 | 2.38 | 5.86 µM | 1.42 | 2.89 µM | 2.15 | 5.29 | 1.57 | 3 µM | 0.666 | 1.95 µM | 1.41 | 2.73 µM | 1.8 | 3.21 µM | 1.65 | 3.01 µM | 1.49 | 3.11 | 3.79 | 8.06 µM
O=C1C=CC(=O)C1(Br)Br | – | 31.7 µM | – | 24.1 µM | – | 38.4 | – | 40.9 µM | – | 41.5 µM | – | 23.1 µM | – | 25.3 µM | – | 21.8 µM | – | 21.4 | – | 10.4 µM
O=C1/C(=C/c2ccccc2)SC(=Nc2ccccc2)N1Nc1ccccc1 | 12 | > 100 µM | 20.3 | > 100 µM | 23.4 | > 100 | 3.6 | 42.2 µM | 19.8 | 66.8 µM | 18.7 | > 100 µM | 34.1 | > 100 µM | 16.2 | 71 µM | 5.48 | 23.4 | 36.5 | > 100 µM
CCc1cccc(CC)c1NC(=S)NC(=O)c1ccc(Br)cc1 | – | > 100 µM | – | > 53.3 µM | – | > 100 | – | 64.6 µM | – | > 77.1 µM | – | > 100 µM | – | > 100 µM | – | > 100 µM | – | > 81.4 | – | > 64.1 µM
C=C1C(=O)O[C@H]2[C@H]1CC/C(COC(=O)C(=O)c1c[nH]c3ccc(OC)cc13)=C\CC[C@@]1(C)O[C@@H]21 | 8.64 | 17.3 µM | – | > 20.6 µM | 6.49 | 11.9 | 1.74 | 3.85 µM | 6.43 | 11 µM | 6.27 | 12 µM | 7.11 | 14.1 µM | 5.05 | 9.55 µM | 6.1 | 12.2 | 6.41 | 14.5 µM
C#CCN1CCN(C(=S)N/N=C(\C)c2ccccn2)CC1 | 0.273 | 8.09 µM and 2.16 µM | 0.00362 | 2.3 µM and 0.915 µM | 0.124 | 5.89 | 3.43 | 5.13 µM and 5.16 µM | 0.496 | 5.76 µM and 4.6 µM | – | 3.54 µM and 5.04 µM | 0.14 | 4.65 µM and 3.11 µM | 2.09 | 8.06 µM and 7.04 µM | 2.39 | 11.4 | 1.58 | 5.5 µM and 6.36 µM
COc1cc(NN=C(c2ccc(O)cc2)c2ccc(O)cc2)c([N+](=O)[O-])cc1[N+](=O)[O-] | 7.59 | 33.7 µM | 11.2 | 23.2 µM | 5.29 | 20.3 | 12.1 | 31.6 µM | 17.2 | 31.6 µM | 11.4 | 25.5 µM | 18.8 | 40.1 µM | 15.3 | 33.9 µM | 11.2 | 23.3 | 4.69 | 19.9 µM
COC(=O)c1ccccc1NC(=O)C(=O)CC(=O)c1ccccc1NC1=CC(=O)C(=O)c2ccccc21 | – | 41 µM | – | 53.1 µM | – | > 74.8 | – | 32.5 µM | – | 11.1 µM | – | 23 µM | – | 57.7 µM | – | 29.4 µM | – | 15.1 | – | > 95.1 µM
Nc1ccn([C@H]2C[C@@H](O)[C@@H](CO)S2)c(=O)n1 | > 100 | > 100 µM | > 89.8 | > 100 µM | > 32 | > 100 | > 100 | > 100 µM | > 100 | > 100 µM | > 100 | > 100 µM | > 100 | > 100 µM | > 100 | > 100 µM | > 44.7 | > 100 | > 100 | > 100 µM
CS(=O)(=O)N1CCN(Cc2cc3nc(-c4cccc5[nH]ncc45)nc(N4CCOCC4)c3s2)CC1 (tested in a mixture with another compound) | 0.0213 | 0.0487 µM | 0.182 | 0.649 µM | 0.112 | – | 0.114 | 0.829 µM | 0.139 | 1.99 µM | 1.49 | > 100 µM | 0.134 | – | 0.21 | – | 0.0898 | – | 0.129 | –
Cc1ccc(S(=O)(=O)Oc2ccc3c4c(c(=O)oc3c2)CCCCC4)cc1 | > 100 | > 100 µM | 4.05 | > 100 µM | > 100 | > 100 | 9.26 | > 100 µM | > 100 | > 100 µM | > 100 | > 100 µM | > 100 | > 100 µM | > 100 | > 100 µM | > 100 | > 100 | > 100 | > 100 µM
COc1cc2c3c(n(CCCN4CCN(C)CC4)c(=O)c2cc1OC)-c1cc2c(cc1C3=O)OCO2 | 18.7 | 84.2 µM | 10.3 | 40.3 µM | 18 | 95.8 | 19.8 | 46.9 µM | 24.8 | 42.3 µM | 15.3 | 32.4 µM | 17.6 | 31.4 µM | 16.5 | 43.2 µM | 11.4 | 24.1 | 17.1 | 31.9 µM
Nc1c(C(=O)c2cccc(OCCN3CCOCC3)c2)cnn1-c1ccc(F)cc1 | > 25 | > 25 µM | > 25 | > 25 µM | > 25 | > 25 | > 25 | > 25 µM | > 25 | > 25 µM | > 25 | > 25 µM | > 25 | > 25 µM | > 25 | > 25 µM | > 25 | > 25 | > 25 | > 25 µM
CC(CN)[C@@H]1CC[C@]2(CO)CC[C@]3(C)[C@H](CC[C@@H]4[C@@]5(C)CCC(NCCO)C(C)(C)[C@@H]5CC[C@]43C)[C@@H]12 (stereo partly drawn) | 1.68 | 3.08 µM | 1.73 | 3.55 µM | 2 | 4.08 | 1.3 | 2.94 µM | 1.62 | 3.16 µM | 1.38 | 2.86 µM | 2.11 | 5 µM | 1.87 | 3.43 µM | 1.94 | 3.61 | 1.81 | 3.88 µM
Cc1ccc(N=C2CSc3nnc(-c4csc5c4CCCC5)n3N2)cc1 | 0.265 | > 50 µM | 0.191 | > 50 µM | 0.24 | > 50 | 1.97 | > 50 µM | 26.5 | > 50 µM | 0.369 | > 50 µM | 0.932 | > 50 µM | 8.24 | > 50 µM | 0.406 | > 50 | > 50 | > 50 µM
C(CCc1nnc2c(n1)CCCC2)Cc1nnc2c(n1)CCCC2 | – | > 100 µM | – | > 100 µM | – | > 100 | – | > 100 µM | – | > 100 µM | – | > 100 µM | – | > 100 µM | – | > 100 µM | – | > 100 | – | > 100 µM
CC[N+](CC)=c1ccc2nc3c(cc(NCc4ccccc4)c4ccccc43)oc-2c1 | 0.215 | 0.56 µM | 0.153 | 0.311 µM | 0.512 | 1.86 | 0.217 | 1.33 µM | 0.172 | 0.358 µM | 0.214 | 1.72 µM | 0.681 | 2.19 µM | 1.2 | 2.47 µM | 1.02 | 2.34 | 0.671 | 2.29 µM
CCOC(=O)/C=C1\SC(=Nc2ccc(C#N)cc2)N(CCN2C(=O)/C(=C/C(=O)OCC)SC2=Nc2ccc(C#N)cc2)C1=O | 15.4 | 51.2 µM | 3.05 | 11.5 µM | 2.55 | 8.39 | 13.7 | 36.5 µM | 11 | 30 µM | 2.09 | 7.85 µM | 6.75 | 30.8 µM | 8.86 | 27.5 µM | 2.58 | 16.6 | 14.8 | 36.6 µM
COc1ncc(-c2nc3c(n2C(C)C)[C@H](c2ccc(Cl)cc2)N(c2cc(Cl)cn(C)c2=O)C3=O)c(OC)n1 | 17.9 | > 100 µM | 36.9 | > 100 µM | 90 | > 100 | 3.28 | 52.6 µM | 14.6 | 59.3 µM | 29.6 | > 100 µM | > 100 | > 100 µM | 42.2 | > 100 µM | 49.8 | > 100 | 36.8 | > 100 µM
CN1CCN(c2ccc(-c3cnc4c(-c5csc6ccccc56)cnn4c3)cc2)CC1 | 3.11 | 11.4 µM | 7.28 | > 15 µM | 8.37 | > 15 | > 15 | > 15 µM | 3.04 | 7.68 µM | 4.88 | 14.7 µM | > 15 | > 15 µM | > 15 | > 15 µM | 14.8 | > 15 | 8.37 | > 15 µM
O=C(O)CCC1COc2ccccc2O1 (stereo not drawn) | – | > 10 µM | – | > 10 µM | – | > 10 | – | > 10 µM | – | > 10 µM | – | > 10 µM | – | > 10 µM | – | > 10 µM | – | > 10 | – | > 10 µM
Nc1nc2ccc([C@@H]3Nc4ccc5[nH]ncc5c4[C@H]4[C@H]5CCC(C5)[C@H]43)cc2s1 | 0.994 | 3.98 µM | 1.08 | 2.92 µM | 1.14 | 2.9 | 1.67 | 11.8 µM | 0.968 | 2.6 µM | 1.29 | 11.6 µM | 1.83 | 4.41 µM | 1.36 | 4.29 µM | 1.53 | 4.12 | 2.73 | 8.98 µM
